# Source: patent US20070020193A1, “Dronabinol compositions and methods for using same” (priority 2005, published 2007)
# Legend:
# healthy subjects [1] = experiment: Example 2: safety, adverse events; type: in vivo, human; conditions: for events reported among subjects treated with active drug: all six subjects; for events considered probably or possibly related to study drug: all six subjects on active drug
# Description: Adverse events were recorded based on original descriptions from subject responses to queries. Complete medical histories and physical examinations were conducted. Vital signs were monitored, ECGs were recorded along with pulmonary function tests and laboratory examinations.
# Treatment-emergent adverse events (TEAEs), defined as any event that begins or worsens after treatment with study medication, were summarized by MedDRA system organ class (SOC) for each treatment group. The number and percentage of subjects with TEAEs was tabulated for each treatment and with respect to maximum severity and relationship to study medication.
# healthy subjects [2] = experiment: Example 1: subjective drug ratings and ARCI; type: in vivo, human
# Excerpt: (§1) The subject responded to each of three questions on a scale of 0 to 100 with 0 meaning no effect/not at all and 100 meaning maximum/very much:
# How much of a drug effect or high do you feel?
# How much do you like the drug?
# How much do you dislike the drug?
# (§2) The ARCI is a true/false questionnaire developed to specifically measure the subjective effects of drugs which have diverse pharmacological actions. The […] (PCAG), morphine-benzedrine, and lysergic acid diethylamide subgroup scales were used to assess sedation, euphoria, and dysphoria. Questions from the marijuana subscale were also included.
# Subjective drug ratings and cognitive measurement scores were presented as absolute values only with separate tables summarizing gender difference and age differences.
# [3] = oral administration, first-pass metabolism; cited from earlier work
# healthy subjects [4] = experiment: Example 1: conjunctiva congestion rating; type: in vivo, human
# Excerpt: Conjunctiva Congestion was rated by a trained observer on a scale of 0-3 based on the blood vessels present as follows:
# 0—None (The white of the eye was not affected)
# 3—Considerable (The compete white of the eye is red caused by a pattern of bigger vessels. This is associated with complaints.)
# (§3) Absolute values of heart rate and conjunctive congestion scores were used to calculate changes from baseline.
# healthy subjects [5] = experiment: Example 2: heart rate (telemetry / vital signs); type: in vivo, human; conditions: for placebo-corrected mean heart rate: 1.2 mg; for Mean increase of heart rate above baseline: last day of dosing
# Excerpt: (§4) For Examples 1 and 2: Heart rate was obtained from the blood pressure recordings or using telemetry.
# as §3
# Changes from baseline in conjunctiva congestion and heart rate were compared for all time-points measured, and summarized using descriptive statistics. Subjective ratings were individually tabulated and sorted by treatment group, subject number, and time, and summarized using descriptive statistics. Separate tables were provided to summarize differences between males and females if applicable. Pharmacodynamic assessments were compared with delta-9 THC and 11-OH-THC blood concentrations and summarized using descriptive statistics.
# healthy subjects [6] = experiment: Example 1: heart rate and blood pressure; type: in vivo, human
# Excerpt: Heart rate, conjunctiva congestion, subjective ratings, and a battery of computerized cognitive tests were used to evaluate pharmacodynamics. FIG. 11a-b are plots of mean baseline adjusted heart rate for Groups I-III. FIG. 12a-c show plots of placebo corrected diastolic blood pressure. […] FIG. 14a-b present comparisons of Active versus Placebo alertness and a plot of change in self-rated alertness. FIG. 15a-b show comparisons of Active v. Placebo for calmness and a plot of change in self-rated calmness.
# as §4, §3
# For Example 1: All pharmacodynamic variables were evaluated using descriptive statistics for all study evaluations.
# healthy subjects [7] = experiment: Example 2: subjective drug rating and ARCI-49; type: in vivo, human
# Excerpt: The data for Group I and Group II were pooled and submitted to a mixed effects general linear model analysis. Two sets of analyses were done. The first was for the pre-drug conditions. The fixed effect of day and the fixed effect of condition were non-significant for all of the five scale scores, indicating similarity of pre-drug baseline score. A second analysis compared condition, the first dosing day, the last dosing day, the four visits including pre-drug, and the subjects in the analysis of variance.
# as §1, §2
# [8] = after single dosing, both dose levels
compound,measurement,setting,value
"CCCCCc1cc(O)c2c(c1)OC(C)(C)[C@@H]1CCC(C)=C[C@@H]21 [delta-9-THC, delta-9-tetrahydrocannabinol]",subjects reporting cough,"healthy subjects [1]; 1.2 mg, Group I, all six",100%
same,subjects with increased liver function tests (summary),healthy subjects [1]; 3.6 mg for two weeks,three out of nine subjects
same,subjects reporting cough,"healthy subjects [1]; 3.6 mg, Group II, five out of six",83.3%
same,subjects reporting euphoric mood,"healthy subjects [1]; Group 1, one subject",16.7%
same,most frequently reported TEAEs,healthy subjects [1]; Group I (1.2 mg dose level),cough and somnolence
same,"TEAEs Probable/Possible, E = number of adverse events",healthy subjects [1]; Group I Active (1.2 mg),13
same,"TEAEs Probable/Possible, N = number of subjects",healthy subjects [1]; Group I Active (1.2 mg),6
same,"TEAEs Unlikely/Unrelated, E = number of adverse events",healthy subjects [1]; Group I Active (1.2 mg),7
same,"TEAEs Unlikely/Unrelated, N = number of subjects",healthy subjects [1]; Group I Active (1.2 mg),3
same,"Any related TEAE, n (x %) subjects","healthy subjects [1]; Group I, 1.2 mg",6 (100%)
same,"Any related TEAE, number AEs","healthy subjects [1]; Group I, 1.2 mg",13
same,"Subjects with at least one AE, n (x %)","healthy subjects [1]; Group I, 1.2 mg",6 (100%)
same,"Subjects with at least one AE, number AEs","healthy subjects [1]; Group I, 1.2 mg",20
same,events reported among subjects treated with active drug,healthy subjects [1]; Group I,27 events
same,events considered probably or possibly related to study drug,healthy subjects [1]; Group I,13 events
same,most frequently reported TEAEs,healthy subjects [1]; Group II (3.6 mg dose level),"cough, headache, and euphoric mood"
same,"TEAEs Probable/Possible, E = number of adverse events",healthy subjects [1]; Group II Active (3.6 mg),17
same,"TEAEs Probable/Possible, N = number of subjects",healthy subjects [1]; Group II Active (3.6 mg),6
same,"TEAEs Unlikely/Unrelated, E = number of adverse events",healthy subjects [1]; Group II Active (3.6 mg),9
same,"TEAEs Unlikely/Unrelated, N = number of subjects",healthy subjects [1]; Group II Active (3.6 mg),3
same,"Any related TEAE, n (x %) subjects","healthy subjects [1]; Group II, 3.6 mg",6 (100%)
same,"Any related TEAE, number AEs","healthy subjects [1]; Group II, 3.6 mg",17
same,"Subjects with at least one AE, n (x %)","healthy subjects [1]; Group II, 3.6 mg",6 (100%)
same,"Subjects with at least one AE, number AEs","healthy subjects [1]; Group II, 3.6 mg",27
same,subjects with liver enzymes elevated at follow-up,"healthy subjects [1]; Group II, 3.6 mg",three subjects
same,events reported among subjects treated with active drug,healthy subjects [1]; Group II,19 events
same,events considered probably or possibly related to study drug,healthy subjects [1]; Group II,17 events
same,subjects reporting euphoric mood,"healthy subjects [1]; Group III (so in the source), three subjects",50.0%
same,duration of intermittent cough,"healthy subjects [1]; active treatment, Group I",between four and nine days
same,duration of intermittent cough,"healthy subjects [1]; active treatment, Group II",between six and 18 days
same,subjects reporting somnolence,"healthy subjects [1]; active treatment, two subjects in each group",33.3%
same,overall safety and tolerability,"healthy subjects [1]; single and multiple dosing with 1.2 and 3.6 mg, pulmonary inhaled",safe and well-tolerated
same,"vital signs, ECG, physical examination, telemetric monitoring and pulmonary function tests",healthy subjects [1]; summary,No dose-related trends or clinically significant changes
same,deaths or serious adverse events,healthy subjects [1]; whole study,No deaths or serious adverse events
same,intensity of TEAEs,healthy subjects [1]; whole study,mild intensity
same,"serious or severe AEs, AEs leading to premature termination",healthy subjects [1]; whole study,no serious or severe AEs
same,dose with maximum 'disliking',healthy subjects [2]; Group I,2.4 mg
same,dose with maximum psychoactivity ('feel the drug' scores) and highest mean 'liking' scores,healthy subjects [2]; Group I,0.3 mg
same,dose with maximum 'disliking' scores and maximum 'feel the drug' scores,healthy subjects [2]; Group II,7.2 mg
same,dose with maximum 'liking' scores,healthy subjects [2]; Group II,3.6 mg
same,"subjective drug ratings, three scales","healthy subjects [2]; Group III, 3.6 mg",difference between placebo and 3.6 mg
same,"ARCI MBG, LSD and Amphetamine Scales",healthy subjects [2]; in vivo,No significant results
same,part of an orally administered dose that reaches systemic circulation,[3],10-20%
same,number of occurrences of slight congestion,healthy subjects [4]; 9.6 mg dose group,3
same,conjunctiva congestion,healthy subjects [4]; 0.3 to 7.2 mg doses,no or substantially no conjunctiva congestion
same,occurrence of slight conjunctiva congestion,healthy subjects [4]; each of the 3.6 and 7.2 mg doses,once
same,placebo-corrected mean heart rate,healthy subjects [5]; Day 1,limited and short-lasting increase
same,placebo-corrected mean heart rate,healthy subjects [5]; Day 12,no increase
same,duration of placebo-corrected heart rate increase post-dose,"healthy subjects [5]; 3.6 mg, Day 1",at least 4 hours
same,"placebo-corrected mean heart rate, maximum increase","healthy subjects [5]; 3.6 mg, after 19 days of dosing, by 10 minutes post-dose",approximately 10 bpm
same,Mean increase of heart rate above baseline,"healthy subjects [5]; Group I (1.2 mg), at 0.5 hours after dosing",≤ 12 bpm
same,Mean increase of heart rate above baseline,"healthy subjects [5]; Group II (3.6 mg), at 5 minutes after dosing",≤ 18 bpm
same,heart rate (summary),healthy subjects [5]; after single dose inhaled administration,increased in a dose-dependent fashion
same,duration of effect on heart rate,healthy subjects [5]; [8],2 to 4 h
same,time of maximum effect on heart rate,healthy subjects [5]; [8],2 to 5 min
same,effect on heart rate,"healthy subjects [6]; 0.3 mg dose, Groups I-II",did not differ markedly from that observed with placebo
same,duration of heart rate increase,healthy subjects [6]; 1.2 mg,5 min
same,increase in heart rate relative to placebo,"healthy subjects [6]; 1.2 mg, 5 minutes after dosing",approximately 12 bpm
same,duration of heart rate increase,healthy subjects [6]; 2.4 mg,about 15 minutes
same,"largest effect on heart rate, increase compared to placebo",healthy subjects [6]; 7.2 mg,about 46 bpm
same,duration of heart rate increase,healthy subjects [6]; 9.6 mg,about 2.0 hours
same,time of return of heart rate to normal after dosing,"healthy subjects [6]; Group III (elderly, 3.6 mg)",5 min
same,heart rate increase,"healthy subjects [6]; Group III (elderly, 3.6 mg), at 2 minutes",10 bpm
same,placebo corrected diastolic and systolic blood pressure,healthy subjects [6]; across the dose levels investigated,no clear dose-relationship
same,duration of effect on heart rate,healthy subjects [6]; after single dosing,approximately 2 hours
same,time of maximum effect on heart rate,healthy subjects [6]; after single dosing,2 to 5 min
same,placebo corrected heart rate,healthy subjects [6]; between 0.17 and 5 hours post dose,dose related increase
same,'feel the drug' and 'liking' scores,"healthy subjects [7]; 1.2 mg, Day 1",slightly larger than those who received placebo
same,'disliking' scores,"healthy subjects [7]; 1.2 mg, Day 12",approximately the same or slightly higher
same,'feel the drug' and 'liking' scores,"healthy subjects [7]; 1.2 mg, Day 12",diminished
same,ARCI Morphine Benzedrine Group (MBG) scale,"healthy subjects [7]; 3.6 mg, 1 hour post-dose",some MBG effect
same,"'feel the drug', 'liking' and 'disliking' scores versus placebo","healthy subjects [7]; 3.6 mg, Day 1",significantly larger
same,subjective drug rating scores,"healthy subjects [7]; 3.6 mg, Day 19",still much larger than the placebo scores
same,ARCI Amphetamine Scale (AS),healthy subjects [7]; Groups I and II pooled,no significant effects for condition
same,"ARCI Benzedrine Group scale, interaction terms",healthy subjects [7]; Groups I and II pooled,significant for the visit and the condition by visit interaction terms
same,ARCI LSD scale,healthy subjects [7]; Groups I and II pooled,"no significance for condition, day, visit, or any of the interaction terms"
same,"ARCI PCAG scale, visit and condition times visit interaction","healthy subjects [7]; Groups I and II pooled, p less than 0.001",highly significant
